Reference: patent publication US20230295157A1, “3-(1H-IMIDAZOL-2-YL)-2,3,8,8A-TETRAHYDROINDOLIZIN-5(1H)-ONE DERIVATIVES USEFUL AS FACTOR XIA INHIBITORS” (JANSSEN PHARMACEUTICA NV, priority 2020, published 2023)
Read-outs that look alike come from different tables or passages of the source.

What was measured:
[1] = molecular target: Factor XIa (Homo sapiens (Human), UniProt P03951); experiment: Factor XIa inhibition assay (FLINT) utilizing a fluorophore-quencher pair peptide substrate; type: biochemical; details: 30 min preincubation, kinetic reads over 30 min, read-out: FXIa Kin Inh IC50
Chain of Factor XIa (P03951 388-625): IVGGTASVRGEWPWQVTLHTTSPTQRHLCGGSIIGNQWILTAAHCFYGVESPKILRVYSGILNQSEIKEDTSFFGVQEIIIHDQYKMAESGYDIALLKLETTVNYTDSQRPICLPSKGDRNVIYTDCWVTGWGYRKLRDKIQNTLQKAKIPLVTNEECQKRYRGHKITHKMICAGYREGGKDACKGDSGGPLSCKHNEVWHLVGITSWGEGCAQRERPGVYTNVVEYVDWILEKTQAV
Chain of Factor XIa (P03951 19-387 partner): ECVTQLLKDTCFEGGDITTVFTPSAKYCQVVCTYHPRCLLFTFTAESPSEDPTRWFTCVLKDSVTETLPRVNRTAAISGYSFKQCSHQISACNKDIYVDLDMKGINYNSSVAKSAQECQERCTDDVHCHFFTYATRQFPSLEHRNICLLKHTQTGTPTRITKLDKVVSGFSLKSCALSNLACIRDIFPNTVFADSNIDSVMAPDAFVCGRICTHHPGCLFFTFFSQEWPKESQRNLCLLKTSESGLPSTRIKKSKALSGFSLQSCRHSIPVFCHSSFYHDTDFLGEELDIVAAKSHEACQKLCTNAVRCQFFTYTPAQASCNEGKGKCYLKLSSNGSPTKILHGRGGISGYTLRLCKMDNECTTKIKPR
How it was run: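 FXIa ([…]) preincubated 30 min with compound (11-point 3-fold dilution, top 100 nM, 2% DMSO), then 15 μM quenched FXI Arg146-based peptide added; Tris pH 7.5, CaCl2, BSA, CHAPS. Fluorescence 485/520 nm read kinetically every 5 min over 30 min at RT; IC50 by 4-parameter fit.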

[2] = molecular target: human plasma kallikrein (Homo sapiens (Human), UniProt P03952); experiment: Kallikrein inhibition assay (FLINT) utilizing a quenched AMC peptide substrate; type: biochemical; details: 30 min preincubation, kinetic reads over 30 min, Z-Gly-Pro-Arg-AMC substrate 50 μM; read-out: Kallikrein Kin Inh IC50
Chain of human plasma kallikrein (P03952 391-638): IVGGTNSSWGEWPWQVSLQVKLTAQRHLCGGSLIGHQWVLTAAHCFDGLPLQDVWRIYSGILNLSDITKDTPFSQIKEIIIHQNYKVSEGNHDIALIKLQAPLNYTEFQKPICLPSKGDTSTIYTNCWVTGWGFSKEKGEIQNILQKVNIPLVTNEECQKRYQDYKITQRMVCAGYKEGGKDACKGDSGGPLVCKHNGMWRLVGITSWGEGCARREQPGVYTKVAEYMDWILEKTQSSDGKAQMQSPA
Chain of human plasma kallikrein (P03952 20-390 partner): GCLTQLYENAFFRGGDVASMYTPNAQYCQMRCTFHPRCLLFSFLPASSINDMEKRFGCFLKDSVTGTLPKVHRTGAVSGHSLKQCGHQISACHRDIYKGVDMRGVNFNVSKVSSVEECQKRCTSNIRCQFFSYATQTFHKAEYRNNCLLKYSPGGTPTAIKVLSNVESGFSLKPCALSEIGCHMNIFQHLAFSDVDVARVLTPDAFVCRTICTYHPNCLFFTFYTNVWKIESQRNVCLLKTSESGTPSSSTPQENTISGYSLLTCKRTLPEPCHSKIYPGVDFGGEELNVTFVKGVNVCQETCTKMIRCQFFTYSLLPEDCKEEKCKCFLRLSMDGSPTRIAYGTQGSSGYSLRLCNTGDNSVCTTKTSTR
How it was run: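 Enzyme (2 nM final) pre-incubated 30 min at room temperature with compound (11-point, 3-fold, top 1 μM, 2% DMSO), then 50 μM Z-Gly-Pro-Arg-AMC added in Tris pH 7.5 buffer. Kinetic fluorescence 340/440 nm every 5 min over 30 min; IC50 from 4-parameter logistic fit.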

[3] = 5Fam-KLTRAETV-K5Tamra substrate 15 μM
[4] = 5Fam-[…]-K5Tamra substrate 15 μM

Structure (SMILES) | IC50 [1, 3] | IC50 [2] | IC50 [1, 4]
[2H]c1cc(N)nc(F)c1-c1cnc([C@@H]2CC[C@@H]3CC(c4c(-n5cnnn5)ccc(Cl)c4F)=CC(=O)N32)[nH]1 [Example 150, (3S,8aR)-3-[5-(6-amino-4-deuterio-2-fluoro-3-pyridyl)-1H-imidazol-2-yl]-7-[3-chloro-2-fluoro-6-(tetrazol-1-yl)phenyl]-2,3,8,8a-tetrahydro-1H-indolizin-5-one] | 0.6 nM | 8.6 nM | –
[2H]c1c(N)nc(F)c(-c2cnc([C@@H]3CC[C@@H]4CC(c5c(-n6cnnn6)ccc(Cl)c5F)=CC(=O)N43)[nH]2)c1[2H] [Example 151, (3S,8aR)-3-[5-(6-amino-4,5-dideuterio-2-fluoro-3-pyridyl)-1H-imidazol-2-yl]-7-[3-chloro-2-fluoro-6-(tetrazol-1-yl)phenyl]-2,3,8,8a-tetrahydro-1H-indolizin-5-one] | 0.6 nM | 8.9 nM | –
[2H]c1cc(Cl)c(F)c(C2=CC(=O)N3[C@H](CC[C@H]3c3nc(-c4ccc(N)nc4F)c[nH]3)C2)c1-n1cnnn1 [Example 153, (3S,8aR)-3-[4-(6-amino-2-fluoro-3-pyridyl)-1H-imidazol-2-yl]-7-[3-chloro-5-deuterio-2-fluoro-6-(tetrazol-1-yl)phenyl]-2,3,8,8a-tetrahydro-1H-indolizin-5-one] | 0.5 nM | 8.1 nM | –
COCCNc1nccc(-c2cnc([C@@H]3CCC4CC(c5c(-n6cnnn6)ccc(Cl)c5F)=CC(=O)N43)[nH]2)c1F (stereo partly drawn) [Example 161, (3S)-7-(3-chloro-2-fluoro-6-(1H-tetrazol-1-yl)phenyl)-3-(5-(3-fluoro-2-((2-methoxyethyl)amino)pyridin-4-yl)-1H-imidazol-2-yl)-2,3,8,8a-tetrahydroindolizin-5(1H)-one] | 0.5 nM | 1.9 nM | –
CC(C)(O)COc1nccc(-c2cnc([C@@H]3CC[C@@H]4CC(c5c(-n6cnnn6)ccc(Cl)c5F)=CC(=O)N43)[nH]2)c1F [Example 166, (3S,8aR)-7-[3-chloro-2-fluoro-6-(tetrazol-1-yl)phenyl]-3-[5-[3-fluoro-2-(2-hydroxy-2-methyl-propoxy)-4-pyridyl]-1H-imidazol-2-yl]-2,3,8,8a-tetrahydro-1H-indolizin-5-one] | 0.8 nM | 6.6 nM | –
Nc1ccc(-c2cnc([C@@H]3CC[C@@H]4CC(c5c(-n6cnnn6)ccc(Cl)c5F)=CC(=O)N43)[nH]2)c(C(F)(F)F)n1 [Example 167, (3S,8aR)-3-(5-(6-amino-2-(trifluoromethyl)pyridin-3-yl)-1H-imidazol-2-yl)-7-(3-chloro-2-fluoro-6-(1H-tetrazol-1-yl)phenyl)-2,3,8,8a-tetrahydroindolizin-5(1H)-one] | 31 nM | 372 nM | –
O=C1C=C(c2c(-n3cnnn3)ccc(Cl)c2F)C[C@H]2CC[C@@H](c3nc(Cl)c(-c4ccnc([C@@H](O)C(F)(F)F)c4)[nH]3)N12 [Example 173, (3S,8aR)-7-(3-chloro-2-fluoro-6-(1H-tetrazol-1-yl)phenyl)-3-(4-chloro-5-(2-((R)-2,2,2-trifluoro-1-hydroxyethyl)pyridin-4-yl)-1H-imidazol-2-yl)-2,3,8,8a-tetrahydroindolizin-5(1H)-one] | 1.7 nM | 7 nM | –
N#CCc1nccc(-c2c[nH]c([C@@H]3CC[C@@H]4CC(c5c(-n6cnnn6)ccc(Cl)c5F)=CC(=O)N43)n2)c1F [Example 176, 2-(4-(2-((3S,8aR)-7-(3-chloro-2-fluoro-6-(1H-tetrazol-1-yl)phenyl)-5-oxo-1,2,3,5,8,8a-hexahydroindolizin-3-yl)-1H-imidazol-4-yl)-3-fluoropyridin-2-yl)acetonitrile] | 4 nM | 28.5 nM | –
COCc1nccc(-c2c[nH]c([C@@H]3CCC4CC(c5c(-n6cnnn6)ccc(Cl)c5F)=CC(=O)N43)n2)c1F (stereo partly drawn) [Example 177, (3S)-7-(3-chloro-2-fluoro-6-(1H-tetrazol-1-yl)phenyl)-3-(4-(3-fluoro-2-(methoxymethyl)pyridin-4-yl)-1H-imidazol-2-yl)-2,3,8,8a-tetrahydroindolizin-5(1H)-one] | 3.1 nM | 21.6 nM | –
O=C1C=C(c2c(-n3cnnn3)ccc(Cl)c2F)C[C@H]2CC[C@H](c3nc(Cl)c(-c4ccnc(C5(O)CC5)c4)[nH]3)N12 [Example 178, (3R,8aR)-7-(3-chloro-2-fluoro-6-(1H-tetrazol-1-yl)phenyl)-3-(4-chloro-5-(2-(1-hydroxycyclopropyl)pyridin-4-yl)-1H-imidazol-2-yl)-2,3,8,8a-tetrahydroindolizin-5(1H)-one] | 0.4 nM | 1.1 nM | –
O=C1C=C(c2c(-n3cnnn3)ccc(Cl)c2F)C[C@H]2CC[C@H](c3nc(F)c(-c4ccnc(C5(O)CC5)c4)[nH]3)N12 [Example 179, (3R,8aR)-7-(3-chloro-2-fluoro-6-(1H-tetrazol-1-yl)phenyl)-3-(4-fluoro-5-(2-(1-hydroxycyclopropyl)pyridin-4-yl)-1H-imidazol-2-yl)-2,3,8,8a-tetrahydroindolizin-5(1H)-one] | 0.5 nM | 1.4 nM | –
COCCNC(=O)c1nccc(-c2cnc([C@@H]3CC[C@@H]4CC(c5c(-n6cnnn6)ccc(Cl)c5F)=CC(=O)N43)[nH]2)c1F [Example 180, 4-(2-((3S,8aR)-7-(3-chloro-2-fluoro-6-(1H-tetrazol-1-yl)phenyl)-5-oxo-1,2,3,5,8,8a-hexahydroindolizin-3-yl)-1H-imidazol-5-yl)-3-fluoro-N-(2-methoxyethyl)picolinamide] | 8.6 nM | 33.2 nM | –
NC(=O)c1nccc(-c2cnc([C@@H]3CC[C@@H]4CC(c5c(-n6cnnn6)ccc(Cl)c5F)=CC(=O)N43)[nH]2)c1F [Example 181, 4-(2-((3S,8aR)-7-(3-chloro-2-fluoro-6-(1H-tetrazol-1-yl)phenyl)-5-oxo-1,2,3,5,8,8a-hexahydroindolizin-3-yl)-1H-imidazol-5-yl)-3-fluoropicolinamide] | 8.3 nM | 17.8 nM | –
O=C(O)c1nccc(-c2cnc([C@@H]3CC[C@@H]4CC(c5c(-n6cnnn6)ccc(Cl)c5F)=CC(=O)N43)[nH]2)c1F [Example 182, 4-(2-((3S,8aR)-7-(3-chloro-2-fluoro-6-(1H-tetrazol-1-yl)phenyl)-5-oxo-1,2,3,5,8,8a-hexahydroindolizin-3-yl)-1H-imidazol-5-yl)-3-fluoropicolinic acid] | 0.4 nM | 14.1 nM | –
O=C1C=C(c2c(-n3cnnn3)ccc(Cl)c2F)C[C@H]2CC[C@@H](c3ncc(-c4ccnc(OCC5(O)CC5)c4F)[nH]3)N12 [Example 183, (3S,8aR)-7-(3-chloro-2-fluoro-6-(1H-tetrazol-1-yl)phenyl)-3-(5-(3-fluoro-2-((1-hydroxycyclopropyl)methoxy)pyridin-4-yl)-1H-imidazol-2-yl)-2,3,8,8a-tetrahydroindolizin-5(1H)-one] | – | 3.8 nM | 0.6 nM
[2H]C([2H])(O)c1nccc(-c2nc([C@@H]3CC[C@@H]4CC(c5c(-n6cnnn6)ccc(Cl)c5F)=CC(=O)N43)[nH]c2Br)c1F [Example 184, (3S,8aR)-3-(5-bromo-4-(3-fluoro-2-(hydroxymethyl-d2)pyridin-4-yl)-1H-imidazol-2-yl)-7-(3-choro-2-fluoro-6-(1H-tetrazol-1-yl)phenyl)-2,3,8,8a-tetrahydroindolizin-5(1H)-one] | – | 210 nM | 7.3 nM
